Data on 1 compound can be found in US10005720B2, “Compounds useful for the treatment of metabolic disorders and synthesis of the same” (NORTH CAROLINA CENTRAL UNIVERSITY, priority 2013, dated 2018).

Entries after “also recorded” stand apart in the source; their conditions may differ.

Data set [1] concerns genes involved in lipid/energy metabolism. The data set is described as follows: Gene chip microarray analysis of sham and drug treated liver. Format: in vivo, mouse. As to conditions: treated vs sham liver. The text has this: The expression and proteomic studies were implemented with particular interest in lipid/energy metabolism pathways. […] We are also particularly interested in Car3, since this gene represents ˜30% of soluble protein in adipose tissue, goes up in adipocytes (˜2-fold) in response to high fat diet, but goes down in the liver dramatically in response to energetic starvation. Finally, Car3 is negatively regulated by insulin signaling and thus might reflect insulin sensitivity. FGF21 and Car3 are good biomarkers for liver function in response to metabolic changes.

The test system of another data set is CAR3. As to the kind of experiment: CAR3 level in liver of treated mice (Western blot, 2D-DiGE). Type of data set: in vivo, mouse. An excerpt: (§1) The expression and proteomic studies were implemented with particular interest in lipid/energy metabolism pathways.
A general note: Immunoblotting shows a protein as a band on a membrane.

A further data set concerns FGF21. As to the kind of experiment: FGF21 expression in liver of treated C57-DIO mice (Western blot, qPCR, microarray). Format: in vivo, mouse.
From the text: as §1

Data set [2] relates to C57-diet induced obesity (DIO) mouse model. As to the kind of experiment: Histological scoring of hepatic steatosis in the C57-DIO mouse model. Conditions: C57-DIO mice; for fatty liver phenotype / hepatic steatosis by liver histology (H&E): once-daily IP injection for 12 days, 10 mg/kg body weight. Format: in vivo. An excerpt: The C57-diet induced obesity (DIO) mouse model was used in this study as a disease model for fatty liver disease and hepatic insulin resistance (FIG. 4). It was observed that eighty percent of the C57-DIO animals develop the fatty liver phenotype at 20-weeks, which highly correlates with insulin resistance penetrance and poor glycemic control. […] In humans, progressive accumulation of hepatic triglycerides is associated with metabolic syndrome/T2D and leads to impairment of insulin action in the liver. The two guiding phenotypic indicators of test compound efficacy in earlier studies were: histological scoring of hepatic steatosis, and intraperitoneal (IP) glucose tolerance.
Singly housed mice raised on a 60%-fat diet (20-week old males purchased from Sax labs) with extensive fatty liver were treated with the test compound for 12 days via daily intraperitoneal injection (IP). […] In addition, coats of treated animals were drier (FIG. 4B vs. C), consistent with reduction in triglycerides (also observed in the DGAT1 mouse knockout with dry coat).
During initial animal screening, we developed a quantitative histomorphometry platform software using components of the open-source CellProfiler software for automatically quantifying/scoring liver lipid content through lipid droplet detection in entire liver sections. In brief, entire H&E liver slides are scanned at 400× total magnification using an Aperio ScanScope slide scanner. For automated lipid phenotyping, we 1) detect entire pieces of tissue, 2) identify individual lipid droplets based on size and shape and, 3) measure mean droplet size and droplet density per […]. This automated quantitation of liver lipid phenotype, supervised and verified by a trained veterinary pathologist (PI Yi), offers an unbiased and simple method for comparing compound effects. Results from manual scoring of average degree of steatosis in cohorts are; Sham-90%, B127443-27% and are in good agreement with machine-aided scoring results as shown in FIG. 6.

The subject of data set [3] is C57-diet induced obesity mouse model. As to the kind of experiment: Intraperitoneal glucose tolerance testing (IP-GTT) in C57-DIO mice. Type of data set: in vivo. Here is the method:
Glucose tolerance testing (IP-GTT) was performed via an IP injection of a 10% glucose solution at […] body weight within a 10 mL/kg body weight volume. Blood glucose was monitored pre and post injection at 15-minute intervals for 60 minutes using a standard glucometer. IP-GTT was chosen over oral GTT to bypass gut hormone signaling (GLP-1) for a more direct assessment of hepatic insulin resistance. IPGTT was performed on animals both prior to and after the 12-day test compound administration period to glean both individual animal responses and cohort averaged responses.

Where [4] appears, read: drug treated at 10 mg/kg vs. vehicle.
Setting [5] is: trials on large numbers of mice.

Regarding `O=C(Nc1ccc([N+](=O)[O-])cc1Cl)c1cc(Cl)ccc1O` [Example B-127443, Niclosamide], the “expression of genes involved in lipid/energy metabolism (FGF21, Fitm1, Fitm2, CideC, Cyp7A1, chn)” value in data set [1] was “significantly changed the expression of many genes involved in lipid/energy metabolism”. The “CAR3 in liver, Western blot” value in the data set with CAR3 (setting [4]) is listed as “significant reduction”. The “CAR3 protein level in liver, comparative proteomics (2D-DiGE)” value in the data set on CAR3 (livers of treated mice) is on record as “significantly lower levels of CAR3 protein”. Also, the Car3 expression entry with CAR3 (setting [5]) was “decreasing”. Moreover, the “FGF21 expression in liver, Western blot” value in the data set on FGF21 (setting [4]) was “stimulation”. The FGF21 expression entry with FGF21 (setting [5]) is given as “increases”. Moreover, the “fatty liver phenotype / hepatic steatosis by liver histology (H&E)” value was “dramatic therapeutic effects; also recorded: reversal of fatty phenotype” in data set [2] (10 mg/kg) and “efficacious; also recorded: robust responses” in data set [2] (listed as B127443, 10 mg/kg). The “average degree of steatosis in cohorts, manual scoring” value in data set [2] (Sham 90%) is reported as 27%. In addition, the “glucose tolerance (IP-GTT), individual animals before and after treatment” value in data set [3] (12-day treatment with 5 mg/kg, Animals 1,3) is listed as “improved glucose tolerance”. Further, the “glucose tolerance (IP-GTT)” value in data set [3] (12-day treatment, 10 mg/kg, cohort average (n=6) vs sham, 10 mg/kg) is given as “markedly improved; also recorded: marked improvement in glucose tolerance”.
